Measured values as given in ChEMBL document CHEMBL1212880, “Discovery of (2,4-dihydroxy-5-isopropylphenyl)-[5-(4-methylpiperazin-1-ylmethyl)-1,3-dihydroisoindol-2-yl]methanone (AT13387), a novel inhibitor of the molecular chaperone Hsp90 by fragment based drug design” (J Med Chem, 2010).
In brackets after ≈: the same amount, converted by molar mass. Activity calls are given as the source filed them. The rule behind the calls is not given here.

Experiments:
[1] = Intrinsic clearance in mouse liver S9 fraction; format: ADME, subcellular; conditions: s9
HCT-116 [2] = experiment: Cytotoxicity against human HCT116 cells at 30 uM by Alamar blue assay; format: functional, cell-based
HCT-116 [3] = experiment: Cytotoxicity against human HCT116 cells at 100 uM by Alamar blue assay; format: functional
[4] = Dissociation constant, pKa of the compound; format: physicochemical
physchem = conditions: buffer, pH 7.4
hERG (KCNH2) [5] = molecular target: T1, hERG (KCNH2) (Homo sapiens, UniProt Q12809); experiment: in vitro; conditions: HEK293 cells expressing hERG
Description: Inhibition of human ERG expressed in HEK293 cells at 3 uM by patch clamp assay

hERG (KCNH2) [6] = molecular target: T1, hERG (KCNH2); experiment: in vitro; conditions: HEK293 cells expressing hERG; remark: listed apart in the source
Description: Inhibition of human ERG expressed in HEK293 cells at 30 uM by patch clamp assay

Cytochrome P450 2C9 = Cytochrome P450 2C9 (Homo sapiens, UniProt P11712); experiment: Binding affinity to CYP2C9; format: ADME
Cytochrome P450 2C19 = Cytochrome P450 2C19 (Homo sapiens, UniProt P33261); experiment: Binding affinity to CYP2C19; format: ADME
[7] = Protein binding in human plasma after 6 hrs by equilibrium dialysis method; format: ADME, cell-free; conditions: read-out: PPB (converted)
[8] = Solubility of the compound in acetate buffer at 15 mg at pH 5.5; format: physicochemical
[9] = Solubility of the compound in phosphate buffer at 15 mg at pH 6.5; format: physicochemical
[10] = Solubility of the compound in phosphate buffer at 15 mg at pH 5.5; format: physicochemical
[11] = Solubility of the compound in lactate buffer at 15 mg at pH 4.2; format: physicochemical
[12] = Chemical stability of the compound after 24 hrs; format: physicochemical
[13] = Chemical stability of the compound after 48 hrs; format: physicochemical
[14] = Chemical stability of the compound after 144 hrs; format: physicochemical
[15] = Thermal stability of the compound at 80 degC after 24 hrs; format: physicochemical

T1 sequence (Q12809 whole entry): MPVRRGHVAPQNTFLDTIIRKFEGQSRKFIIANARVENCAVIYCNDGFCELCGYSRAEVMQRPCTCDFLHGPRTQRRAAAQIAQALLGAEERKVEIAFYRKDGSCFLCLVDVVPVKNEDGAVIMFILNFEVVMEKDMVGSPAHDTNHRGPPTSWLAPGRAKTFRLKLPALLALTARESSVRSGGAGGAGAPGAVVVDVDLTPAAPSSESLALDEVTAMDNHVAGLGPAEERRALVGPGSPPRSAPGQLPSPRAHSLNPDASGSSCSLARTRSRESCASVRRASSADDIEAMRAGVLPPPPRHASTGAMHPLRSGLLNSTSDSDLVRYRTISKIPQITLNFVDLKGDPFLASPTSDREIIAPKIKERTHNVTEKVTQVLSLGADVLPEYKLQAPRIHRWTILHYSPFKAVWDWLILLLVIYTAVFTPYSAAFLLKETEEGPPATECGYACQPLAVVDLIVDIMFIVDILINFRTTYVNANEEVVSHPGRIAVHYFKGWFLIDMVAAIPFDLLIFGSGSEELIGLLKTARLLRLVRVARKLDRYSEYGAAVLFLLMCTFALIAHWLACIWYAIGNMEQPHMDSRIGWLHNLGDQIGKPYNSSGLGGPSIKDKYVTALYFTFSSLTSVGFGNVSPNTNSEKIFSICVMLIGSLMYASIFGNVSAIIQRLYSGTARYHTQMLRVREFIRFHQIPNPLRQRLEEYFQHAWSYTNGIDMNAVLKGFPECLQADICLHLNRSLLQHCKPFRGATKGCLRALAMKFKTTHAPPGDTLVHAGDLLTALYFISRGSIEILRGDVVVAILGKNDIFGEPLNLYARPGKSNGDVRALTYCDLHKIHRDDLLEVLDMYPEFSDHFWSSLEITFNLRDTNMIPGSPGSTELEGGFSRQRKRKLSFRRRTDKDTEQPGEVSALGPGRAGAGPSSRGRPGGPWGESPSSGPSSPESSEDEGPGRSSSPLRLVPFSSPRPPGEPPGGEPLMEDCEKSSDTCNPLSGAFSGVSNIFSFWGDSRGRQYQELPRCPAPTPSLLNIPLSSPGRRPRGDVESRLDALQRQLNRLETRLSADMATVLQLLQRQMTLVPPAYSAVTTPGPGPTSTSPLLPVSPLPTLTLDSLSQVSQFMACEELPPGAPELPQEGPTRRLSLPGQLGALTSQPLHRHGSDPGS
Cytochrome P450 2C19, sequence (P33261 whole entry): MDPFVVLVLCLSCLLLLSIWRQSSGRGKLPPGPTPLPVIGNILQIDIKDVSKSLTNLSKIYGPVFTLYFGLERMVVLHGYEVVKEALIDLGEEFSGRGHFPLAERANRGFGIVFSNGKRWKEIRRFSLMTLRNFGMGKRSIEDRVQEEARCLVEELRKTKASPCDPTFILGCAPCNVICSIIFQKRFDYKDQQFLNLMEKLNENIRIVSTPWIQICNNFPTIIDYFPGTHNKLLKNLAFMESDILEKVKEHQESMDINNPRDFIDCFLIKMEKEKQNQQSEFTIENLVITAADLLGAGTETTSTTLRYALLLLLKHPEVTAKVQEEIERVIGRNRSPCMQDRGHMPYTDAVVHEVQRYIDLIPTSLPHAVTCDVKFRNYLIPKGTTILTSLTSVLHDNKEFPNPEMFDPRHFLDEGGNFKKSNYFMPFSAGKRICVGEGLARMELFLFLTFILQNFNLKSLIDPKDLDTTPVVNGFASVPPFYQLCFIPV
Cytochrome P450 2C9, sequence (P11712 whole entry): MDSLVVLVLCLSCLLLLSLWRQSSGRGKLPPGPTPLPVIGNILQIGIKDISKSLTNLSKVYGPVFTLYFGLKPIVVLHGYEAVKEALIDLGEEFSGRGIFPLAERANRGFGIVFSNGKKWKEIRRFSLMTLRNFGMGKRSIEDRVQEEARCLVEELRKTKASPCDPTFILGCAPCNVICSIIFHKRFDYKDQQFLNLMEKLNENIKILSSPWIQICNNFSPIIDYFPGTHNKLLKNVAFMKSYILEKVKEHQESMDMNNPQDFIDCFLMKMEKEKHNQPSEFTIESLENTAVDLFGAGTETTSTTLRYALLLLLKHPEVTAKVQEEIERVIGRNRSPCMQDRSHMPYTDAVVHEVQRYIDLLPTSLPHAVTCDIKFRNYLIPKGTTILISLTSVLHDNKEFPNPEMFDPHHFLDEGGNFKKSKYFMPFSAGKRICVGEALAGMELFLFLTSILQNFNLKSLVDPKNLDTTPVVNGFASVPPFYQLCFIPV

Compound | pKa [4] | logD (physchem) | inhibition at 3 µM (hERG (KCNH2) [5]) [%] | inhibition at 30 µM (hERG (KCNH2) [6]) [%] | further results
CC(C)c1cc(C(=O)N2Cc3ccccc3C2)c(O)c(F)c1O | – | – | – | – | CL [1]: 5.8 mL/day/kg; Activity (HCT-116 [2]): inactive; Activity (HCT-116 [3]): 60%
CC(C)c1cc(C(=O)N2Cc3ccc(CN4CCOCC4)cc3C2)c(O)cc1O | 6.9 | 3.3 | 25 | 48 | –
CC(C)c1cc(C(=O)N2Cc3ccc(OCCNCC(C)(C)C)cc3C2)c(O)cc1O | – | – | 53 | 92 | –
CC(C)c1cc(C(=O)N2Cc3ccc(NC4CCNCC4)cc3C2)c(O)cc1O | 10.2 | 0.7 | 10 | 20 | –
CC(C)c1cc(C(=O)N2Cc3ccc(N4CCOCC4)cc3C2)c(O)cc1O | 4.3 | – | – | – | –
CC(C)c1cc(C(=O)N2Cc3ccc(OCCCN)cc3C2)c(O)cc1O | 10.2 | 0.96 | 8 | 42 | Activity (Cytochrome P450 2C9): Active; Activity (Cytochrome P450 2C19): Active
CC(C)c1cc(C(=O)N2Cc3ccc(OCCNC4CCCC4)cc3C2)c(O)cc1O | – | – | 60 | 97 | –
CC(C)c1cc(C(=O)N2Cc3cccc(OCCCN4CCOCC4)c3C2)c(O)cc1O | 7 | 3.55 | 23 | 83 | –
CC(C)c1cc(C(=O)N2Cc3ccc(C4(O)CCN(C)CC4)cc3C2)c(O)cc1O | 9.4 | 1.7 | 15 | 34 | fraction unbound at 6 h [7]: 0.36; solubility [8]: > 30 mg/mL; solubility [9]: 15 mg/mL (≈ 36.5 mM); solubility [10]: > 30 mg/mL; solubility [11]: > 30 mg/mL; Stability [12]: Stable; Stability [13]: Stable; Stability [14]: Stable; Stability [15]: Unstable
CC(C)c1cc(C(=O)N2Cc3ccc(NC4CCN(C)CC4)cc3C2)c(O)cc1O | 9.05 | 1.7 | 25 | 72 | fraction unbound at 6 h [7]: 0.36; solubility [8]: < 3 mg/mL; solubility [9]: < 3 mg/mL; solubility [10]: < 3 mg/mL; solubility [11]: < 3 mg/mL
